Measured values published in PMC9950431, “A bivalent remipede toxin promotes calcium release via ryanodine receptor activation” (Nature Communications, 2023).
No end group written: not given here.

Assays:
RyR1 [1] = biological target: T1, RyR1 (Oryctolagus cuniculus, UniProt P11716); details: cited from earlier work
T1 construct: skeletal SR vesicles were isolated from the back and leg muscles of mature female New Zealand white rabbits; from tissue; host or cells: rabbit back and leg skeletal muscle, sarcoplasmic reticulum vesicles
T1 sequence (P11716 whole entry): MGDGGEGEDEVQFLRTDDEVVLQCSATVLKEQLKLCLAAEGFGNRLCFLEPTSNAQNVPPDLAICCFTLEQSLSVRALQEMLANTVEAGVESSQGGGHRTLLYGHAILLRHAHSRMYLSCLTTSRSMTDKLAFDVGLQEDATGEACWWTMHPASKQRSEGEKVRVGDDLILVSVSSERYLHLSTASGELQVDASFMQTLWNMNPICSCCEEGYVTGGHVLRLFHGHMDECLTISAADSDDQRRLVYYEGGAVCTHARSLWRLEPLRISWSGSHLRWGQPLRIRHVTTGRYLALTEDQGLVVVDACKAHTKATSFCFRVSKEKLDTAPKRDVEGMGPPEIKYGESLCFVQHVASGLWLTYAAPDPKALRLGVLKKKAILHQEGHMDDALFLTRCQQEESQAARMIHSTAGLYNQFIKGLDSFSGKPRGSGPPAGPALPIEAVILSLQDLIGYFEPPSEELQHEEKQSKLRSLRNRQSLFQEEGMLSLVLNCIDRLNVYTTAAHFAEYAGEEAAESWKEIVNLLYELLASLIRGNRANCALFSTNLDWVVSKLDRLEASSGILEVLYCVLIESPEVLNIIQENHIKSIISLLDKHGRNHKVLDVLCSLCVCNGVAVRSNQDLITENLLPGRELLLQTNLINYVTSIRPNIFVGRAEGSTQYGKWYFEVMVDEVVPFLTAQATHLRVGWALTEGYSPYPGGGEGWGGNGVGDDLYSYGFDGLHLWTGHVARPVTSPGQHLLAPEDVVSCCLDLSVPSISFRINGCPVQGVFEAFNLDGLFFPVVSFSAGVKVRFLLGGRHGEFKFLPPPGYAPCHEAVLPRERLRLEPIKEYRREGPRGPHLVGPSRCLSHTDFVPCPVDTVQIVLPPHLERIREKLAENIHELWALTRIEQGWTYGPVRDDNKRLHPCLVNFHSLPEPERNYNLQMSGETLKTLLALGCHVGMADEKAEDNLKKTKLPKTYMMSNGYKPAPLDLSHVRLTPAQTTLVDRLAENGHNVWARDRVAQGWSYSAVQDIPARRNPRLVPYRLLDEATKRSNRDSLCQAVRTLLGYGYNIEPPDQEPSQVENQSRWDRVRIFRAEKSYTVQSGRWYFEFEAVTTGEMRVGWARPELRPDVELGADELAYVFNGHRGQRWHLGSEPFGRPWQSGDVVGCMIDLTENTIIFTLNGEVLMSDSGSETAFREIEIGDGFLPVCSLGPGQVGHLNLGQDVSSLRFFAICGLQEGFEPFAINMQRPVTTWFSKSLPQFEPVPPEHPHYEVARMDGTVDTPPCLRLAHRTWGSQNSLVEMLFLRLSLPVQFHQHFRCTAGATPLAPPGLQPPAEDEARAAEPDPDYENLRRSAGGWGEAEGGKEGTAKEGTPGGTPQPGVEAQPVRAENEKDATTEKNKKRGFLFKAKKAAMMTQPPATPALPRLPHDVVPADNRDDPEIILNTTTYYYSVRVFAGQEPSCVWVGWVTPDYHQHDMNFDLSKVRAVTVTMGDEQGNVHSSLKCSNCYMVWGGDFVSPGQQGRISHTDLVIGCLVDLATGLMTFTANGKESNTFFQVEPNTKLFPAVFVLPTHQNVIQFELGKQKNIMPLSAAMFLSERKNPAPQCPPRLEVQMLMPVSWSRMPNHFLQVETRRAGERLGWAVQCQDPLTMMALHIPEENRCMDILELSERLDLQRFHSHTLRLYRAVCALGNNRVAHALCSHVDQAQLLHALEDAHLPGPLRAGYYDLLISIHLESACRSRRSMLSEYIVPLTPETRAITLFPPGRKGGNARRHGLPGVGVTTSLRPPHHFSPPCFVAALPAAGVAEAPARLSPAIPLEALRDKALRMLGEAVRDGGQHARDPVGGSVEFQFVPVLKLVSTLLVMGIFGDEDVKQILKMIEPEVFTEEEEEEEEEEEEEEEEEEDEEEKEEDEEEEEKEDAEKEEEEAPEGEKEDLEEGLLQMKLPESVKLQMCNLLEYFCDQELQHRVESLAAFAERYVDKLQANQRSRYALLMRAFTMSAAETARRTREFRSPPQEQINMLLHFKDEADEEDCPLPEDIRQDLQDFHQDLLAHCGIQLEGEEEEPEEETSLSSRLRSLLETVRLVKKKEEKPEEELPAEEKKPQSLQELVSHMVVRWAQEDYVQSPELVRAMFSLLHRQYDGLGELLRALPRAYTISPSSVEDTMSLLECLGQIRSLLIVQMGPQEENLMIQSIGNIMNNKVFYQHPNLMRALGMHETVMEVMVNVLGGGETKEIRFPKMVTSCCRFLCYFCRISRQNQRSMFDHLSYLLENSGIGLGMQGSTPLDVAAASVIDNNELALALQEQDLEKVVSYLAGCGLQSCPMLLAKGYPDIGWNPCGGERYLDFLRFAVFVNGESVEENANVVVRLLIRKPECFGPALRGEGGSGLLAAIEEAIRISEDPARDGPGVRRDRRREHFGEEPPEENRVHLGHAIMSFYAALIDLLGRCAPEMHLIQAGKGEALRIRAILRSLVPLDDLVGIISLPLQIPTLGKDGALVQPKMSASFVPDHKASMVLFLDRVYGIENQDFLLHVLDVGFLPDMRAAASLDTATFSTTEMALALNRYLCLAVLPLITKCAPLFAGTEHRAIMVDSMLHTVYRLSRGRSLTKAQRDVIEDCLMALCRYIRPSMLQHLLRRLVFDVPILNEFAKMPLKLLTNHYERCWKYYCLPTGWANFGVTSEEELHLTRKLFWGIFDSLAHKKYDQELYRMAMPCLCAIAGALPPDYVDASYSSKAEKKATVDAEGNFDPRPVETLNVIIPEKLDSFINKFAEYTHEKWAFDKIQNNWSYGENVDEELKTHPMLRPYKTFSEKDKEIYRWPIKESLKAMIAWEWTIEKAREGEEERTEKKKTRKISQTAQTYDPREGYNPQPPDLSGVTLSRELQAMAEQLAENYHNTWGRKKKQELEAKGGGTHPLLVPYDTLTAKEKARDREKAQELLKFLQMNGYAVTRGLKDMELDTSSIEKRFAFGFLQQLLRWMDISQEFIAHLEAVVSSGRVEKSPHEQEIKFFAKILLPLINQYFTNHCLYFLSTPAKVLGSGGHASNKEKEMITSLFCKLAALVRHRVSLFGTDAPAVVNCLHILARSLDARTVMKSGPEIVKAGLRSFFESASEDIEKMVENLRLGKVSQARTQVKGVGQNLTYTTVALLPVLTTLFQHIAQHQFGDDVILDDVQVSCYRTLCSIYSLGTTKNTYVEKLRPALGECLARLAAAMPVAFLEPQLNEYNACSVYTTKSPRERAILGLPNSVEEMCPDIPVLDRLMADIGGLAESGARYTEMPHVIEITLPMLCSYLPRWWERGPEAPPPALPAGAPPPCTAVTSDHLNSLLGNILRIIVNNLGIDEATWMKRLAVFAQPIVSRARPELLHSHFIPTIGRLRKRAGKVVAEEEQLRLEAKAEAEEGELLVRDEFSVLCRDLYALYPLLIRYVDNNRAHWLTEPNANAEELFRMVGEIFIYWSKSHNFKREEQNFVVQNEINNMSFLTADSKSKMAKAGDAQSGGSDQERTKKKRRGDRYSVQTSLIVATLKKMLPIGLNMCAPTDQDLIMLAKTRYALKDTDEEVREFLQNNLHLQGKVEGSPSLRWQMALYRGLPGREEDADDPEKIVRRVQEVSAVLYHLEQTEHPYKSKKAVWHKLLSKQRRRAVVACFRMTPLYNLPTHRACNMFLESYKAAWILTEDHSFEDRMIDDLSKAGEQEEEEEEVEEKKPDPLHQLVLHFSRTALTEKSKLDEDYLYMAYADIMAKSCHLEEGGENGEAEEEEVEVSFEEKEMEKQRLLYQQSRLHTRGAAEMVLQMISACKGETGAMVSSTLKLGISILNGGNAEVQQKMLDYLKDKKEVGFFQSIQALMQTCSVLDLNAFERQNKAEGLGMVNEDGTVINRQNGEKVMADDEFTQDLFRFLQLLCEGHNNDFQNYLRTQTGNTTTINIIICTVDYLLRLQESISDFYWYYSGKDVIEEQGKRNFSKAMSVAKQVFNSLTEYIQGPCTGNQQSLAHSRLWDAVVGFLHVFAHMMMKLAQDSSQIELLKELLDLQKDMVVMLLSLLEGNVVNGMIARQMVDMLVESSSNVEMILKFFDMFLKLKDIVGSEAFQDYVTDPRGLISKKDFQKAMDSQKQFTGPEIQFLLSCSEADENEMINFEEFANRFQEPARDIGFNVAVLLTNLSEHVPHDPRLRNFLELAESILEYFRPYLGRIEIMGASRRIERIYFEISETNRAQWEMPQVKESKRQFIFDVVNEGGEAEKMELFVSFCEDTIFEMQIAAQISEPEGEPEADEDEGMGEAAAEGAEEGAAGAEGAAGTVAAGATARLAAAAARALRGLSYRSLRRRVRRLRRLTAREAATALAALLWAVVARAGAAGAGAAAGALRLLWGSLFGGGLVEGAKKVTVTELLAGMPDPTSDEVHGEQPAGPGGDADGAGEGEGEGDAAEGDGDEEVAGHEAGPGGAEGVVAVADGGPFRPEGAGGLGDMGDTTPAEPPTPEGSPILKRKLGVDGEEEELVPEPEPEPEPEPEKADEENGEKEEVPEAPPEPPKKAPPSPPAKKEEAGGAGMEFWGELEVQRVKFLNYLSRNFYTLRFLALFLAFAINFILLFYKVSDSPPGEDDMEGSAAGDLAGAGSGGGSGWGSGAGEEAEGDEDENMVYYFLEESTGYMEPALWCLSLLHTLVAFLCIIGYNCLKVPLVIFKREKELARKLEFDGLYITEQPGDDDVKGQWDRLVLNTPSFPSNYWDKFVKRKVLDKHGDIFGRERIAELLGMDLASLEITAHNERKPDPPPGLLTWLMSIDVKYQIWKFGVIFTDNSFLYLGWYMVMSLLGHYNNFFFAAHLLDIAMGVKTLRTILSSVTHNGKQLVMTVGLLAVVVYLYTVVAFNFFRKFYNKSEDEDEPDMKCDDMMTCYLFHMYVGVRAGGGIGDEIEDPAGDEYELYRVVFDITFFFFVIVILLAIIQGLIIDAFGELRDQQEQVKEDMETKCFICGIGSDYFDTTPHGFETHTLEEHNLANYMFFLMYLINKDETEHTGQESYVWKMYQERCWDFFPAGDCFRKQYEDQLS
Protocol: Electrophysiology experiments were carried out to determine the potency of each peptide. […] It is known that the activity of I ...

RyR1 [2] = biological target: T1, RyR1; test: Single channel electrophysiology of RyR1 channels inserted into lipid bilayers (exposure to peptide); type: biochemical, New Zealand white rabbit (skeletal SR); details: +40 mV
Protocol: Cardiac SR was prepared from mature female crossbred sheep hearts, and skeletal SR vesicles were isolated from the back and leg muscles of mature female New Zealand white rabbits[29],[54] with approval from the ANU Animal Experiment Ethics Committee Protocol Number A2015/35. […] Solutions for vesicle incorporation contained (mM): cis 230 caesium methanesulfonate (CsMS); 20 CsCl; 1 CaCl2 and 10 […] (TES) pH 7.4 and trans 30 CsMS; 20 CsCl; 1 CaCl2 10 TES; pH 7.4. […] Following incorporation, 200 mM CsMS was added to the trans solution and the cis solution exchanged with recording solution containing (mM): 230 CsMS; 20 CsCl; 0.001 CaCl2;10 TES and pH 7.4, with [Ca^2+] set by a [BAPTA] determined using a Ca^2+ electrode. The cytoplasmic and luminal solutions contained 1 μM and 1 mM Ca^2+ respectively, with symmetrical 250/250 mM CsMS. Bilayer voltage was switched between +40 mV and −40 mV (cytoplasmic voltage relative to grounded luminal solution) every 30 s. The activity of the RyR channels used here included 1 µM Ca^2+ in the cytoplasmic solution and 1 mM Ca^2+ in the luminal solution[29],[55]. Electrophysiology experiments were analysed using Channel 2 (P.W. Gage, M. Smith, Australian National University) and Channel 3 (N.W. Laver, University of Newcastle, Australia) software, available from the authors upon request. Statistical analyses were performed using Microsoft Excel (Office 365). […] Following most incorporation events, a single channel only was active in the bilayer and channel open probability (Po), mean open time (To), mean closed time (Tc) and open event frequency (Fo) were measured. When 2–4 channels were active in a bilayer, PO was approximated from the fractional mean current (I’F), i.e., mean current divided by maximum current. I’F is equal to PO in a single channel and indicates the average PO of multiple channels in a bilayer. […] Experiments at UN also included a minority of multi-channel experiments. The bilayer rigs, solution composition, source of channels, data acquisition and analyses methods were all identical.
Statistical analysis of single channel data was performed using Excel spreadsheets and embedded Students t-test functions or a sign test as indicated in the graphs in Figs. 1 and 3.

[3] = system: sarcoplasmic reticulum (SR) in mouse extensor digitorum longus (EDL) fibers; test: SR Ca2+ leak in mechanically-skinned EDL muscle fibers (total SR Ca2+ content, [CaT]SR, after 1 min leak); type: cell-based, mouse (C57/Bl6)
From the text: All experiments were approved by The University of Queensland Animal Ethics Committees. Male and female C57/Bl6 2–6-month-old mice were sacrificed by asphyxiation via CO2 exposure and the EDL muscles were rapidly excised. The EDL was pinned at resting length in a petri dish lined with Sylgard 184 (Dow Corning, Midland, MI) and immersed in paraffin oil (Ajax Chemicals, Sydney, Australia). Segments of individual fibers were mechanically skinned using jeweler’s forceps and pinned out unstretched under oil[37]–[39]. The skinned fiber was then mounted at 120% of resting length on a force transducer (Myotronic UG, Heidelberg, Germany) before transfer to a 2-ml Perspex bath containing standard K^+-based solution that broadly mimics the intracellular milieu. […] All chemicals were purchased from Sigma-Aldrich (St Louis, MO, USA) unless specified otherwise.
Variations of the standard solution were prepared. To deplete the caffeine releasable Ca^2+ (“full release solution”), 30 mM caffeine was added, [Mg^2+] was lowered to 0.05 mM (total Mg^2+ of 2.1 mM) and free EGTA was adjusted to 0.5 mM (pCa 8.5) to chelate released Ca^2+. To measure the maximum force produced by the skinned fiber, all HDTA was replaced by EGTA (relaxing solution) or CaEGTA (maximum Ca^2+ activating solution). The relaxing solution contained 50 mM EGTA and no added Ca^2+ (pCa > 9) and the maximum Ca^2+-activating solution contained 49.5 mM Ca^2+ (pCa 4.7), with total Mg^2+ of 10.3 and 8.1 mM, respectively, to maintain the free [Mg^2+] at 1 mM. A “leak solution” was also prepared, where [Mg^2+] set at 0.1 mM (total Mg^2+ of 3.4 mM) to increase the PO of RyR and with 2 mM EGTA (pCa ~8.5) to chelate leaky Ca^2+ from the SR. […] The BAPTA solution used to pre-equilibrate fibers before lysing was similar to the standard K-HDTA solution but EGTA was replaced with 0.1–1.6 mM BAPTA[37],[39].
The skinned fiber was then equilibrated for 20 s in a solution with a set [BAPTA] before being placed in a freshly triturated emulsion of Triton X-100 in paraffin oil (TX–oil) (10% v/v). The Ca^2+ released upon the membrane lysing rapidly binds to the known amount of BAPTA present within the fiber and to other sites, predominantly troponin C (TnC). The pre-equilibrating [BAPTA] was chosen such that the fiber produced a finite, non-maximal force response upon lysis. Pre-treatment of the fiber with “full release solution” allowed the non-SR Ca^2+ content of the skinned fiber to be assayed. The total amount of Ca^2+ present in the fiber could be calculated from the [BAPTA] in the equilibration solution and the magnitude of the force response. Data are presented as mean ± SD, with n denoting the number of fibers examined. Statistical significance (p < 0.05) was determined with One-way ANOVA.

ryanodine receptor = biological target: T2, ryanodine receptor (Oryctolagus cuniculus, UniProt P11716); test: Single channel recording, exposure to peptide (sheet "Supp Fig 11"; RyR isoform not given); type: biochemical; details: IpTxA; combined average 100pM, 1nM and 5nM; 7 listed values; sem 0.460531; t-test 3.72E-02; control = 1
T2 construct: skeletal SR vesicles were isolated from the back and leg muscles of mature female New Zealand white rabbits; from tissue; host or cells: rabbit back and leg skeletal muscle, sarcoplasmic reticulum vesicles
T2 sequence (P11716 whole entry, canonical isoform): as the sequence (P11716 whole entry) above
From the text: Supplement 41467_2023_36579_MOESM6_ESM.xlsx, sheet "Supp Fig 11" | column: mean Tc; mean To; mean Po; rel Tc; rel To; rel Po

TRPV1 = details: cited from earlier work
RyR2 = system: RyR2; design: method as in PMID 21323602; details: cited from earlier work
RyR1 [4] = system: RyR1; design: method as in PMID 21323602; details: cited from earlier work

For “imperatoxin-A (GDCLPHLKRCKADNDCCGKKCKRRGTNAEKRCR; not fully specified; ends and bridges not checked; UniProt P59868 1-33, looked up) [IpTxA, member of the calcin family of scorpion derived ICK toxins, recombinant (SUMO fusion), reference compound]”, the reversibility of activity (RyR1 [1]) is listed as “reversible”, the “activation of RyR1” value (RyR1 [2]; 0.1 nM n=2, 1 nM n=3, 10 nM n=2 grouped (n=7, P=3.7E-02)) is listed as “show activation withn a similar range” and the “activation of RyR1 channels” value (RyR1 [2]; isolated domains and IpTxA) is listed as “potent (pM to nM) activation of RyR1 channels”. For the same molecule, the “efficiency to increase SR Ca2+ leakage (order)” value ([3]; 10 nM) was “Xt3a > Xt3a-D1 ~ IpTxA > Xt3a-D2”, the “depletion of [CaT]SR” value ([3]; 10 nM peptide in leak solution, 1 min leak, mean ± SD, control leak 18 ± 7%) was 55 ± 18% and the “Relative amount of total Ca2+ left in the SR ([CaT]SR)” value ([3]; 10 nM peptide, 1 min leak, relative to Pre, fiber 2 of column) was 17.9. The “Relative amount of total Ca2+ left in the SR ([CaT]SR)” value ([3]; 10 nM peptide, 1 min leak, relative to Pre, fiber 3 of column) was 33.5, the “Relative amount of total Ca2+ left in the SR ([CaT]SR)” value ([3]; 10 nM peptide, 1 min leak, relative to Pre, fiber 4 of column) was 46.4 and the “Relative amount of total Ca2+ left in the SR ([CaT]SR)” value ([3]; 10 nM peptide, 1 min leak, relative to Pre, fiber 5 of column) was 44.7. The “Relative amount of total Ca2+ left in the SR ([CaT]SR)” value ([3]; 10 nM peptide, 1 min leak, relative to Pre, fiber 6 of column) was 44.3, the “Relative amount of total Ca2+ left in the SR ([CaT]SR)” value ([3]; 10 nM peptide, 1 min leak, relative to Pre, fiber 7 of column) was 51.6 and the “Relative amount of total Ca2+ left in the SR ([CaT]SR)” value ([3]; 10 nM peptide, 1 min leak, relative to Pre, fiber 8 of column) was 48.5. For the same molecule, the “Relative amount of total Ca2+ left in the SR ([CaT]SR)” value ([3]; 10 nM peptide, 1 min leak, relative to Pre, fiber 9 of column) was 70.6, the “Relative amount of total Ca2+ left in the SR ([CaT]SR)” value ([3]; 10 nM peptide, 1 min leak, relative to Pre, fiber 10 of column) was 71.5 and the “Relative amount of total Ca2+ left in the SR ([CaT]SR), mean” value ([3]; 10 nM peptide, 1 min leak, relative to Pre, mean (n = 13 Xt3a, n = 10 others)) was 44.8. The “Relative amount of total Ca2+ left in the SR ([CaT]SR)” value ([3]; 10 nM peptide, 1 min leak, relative to [CaT]SR before the leak (Pre), fiber 1 of column) was 19.4 and the “mean rel Po” value (ryanodine receptor) was 1.9.

B1: DkTx: double-knot spider toxin with tandem repeat ICK structure, TRPV1 (peptide, UniProt P0CH43 1-79, looked up)
Tau-theraphotoxin-Hs1a: DCAKEGEVCSWGKKCCDLDNFYCPMEFIPHCKKYKPYVPVTTNCAKEGEVCGWGSKCCHGLDCPLAFIPYCEKYRGRND
For B1, the avidity on washout (TRPV1) is listed as “high avidity, evidenced by persistent activity during washout”.

B2: GSTm2: glutathione transferase reported to modulate RyR1 and RyR2 (protein, UniProt P28161 1-218, looked up)
Glutathione S-transferase Mu 2: MPMTLGYWNIRGLAHSIRLLLEYTDSSYEEKKYTMGDAPDYDRSQWLNEKFKLGLDFPNLPYLIDGTHKITQSNAILRYIARKHNLCGESEKEQIREDILENQFMDSRMQLAKLCYDPDFEKLKPEYLQALPEMLKLYSQFLGKQPWFLGDKITFVDFIAYDVLERNQVFEPSCLDAFPNLKDFISRFEGLEKISAYMKSSRFLPRPVFTKMAVWGNK
In the case of B2, the “effect on RyR2 activity” value (RyR2) is listed as “strongly inhibits RyR2” and the “effect on RyR1 activity” value (RyR1 [4]) is listed as “slightly increases the activity of RyR1”.
